Source: PMC7982426 (Acta Pharmaceutica Sinica. B, 2020)

Target: G protein-coupled receptor 35 (GPR35) (Homo sapiens, UniProt Q9HC97)
Test: GPR35 internalization by flow cytometry in NCM460 cells
Assay type: cell-based

Sequence of G protein-coupled receptor 35 (GPR35) (Q9HC97 whole entry): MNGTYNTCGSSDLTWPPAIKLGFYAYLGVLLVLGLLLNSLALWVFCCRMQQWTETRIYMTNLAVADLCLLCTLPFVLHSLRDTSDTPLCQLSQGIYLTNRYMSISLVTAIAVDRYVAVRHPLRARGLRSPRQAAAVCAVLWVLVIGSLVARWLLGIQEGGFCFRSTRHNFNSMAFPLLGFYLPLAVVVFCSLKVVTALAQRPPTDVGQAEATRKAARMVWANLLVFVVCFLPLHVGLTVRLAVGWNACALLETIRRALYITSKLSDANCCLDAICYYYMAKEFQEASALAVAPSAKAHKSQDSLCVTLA

EC50: 46.2 µM
SMILES: O=C(O)c1cc(=O)c2ccccc2[nH]1 [KA, kynurenic acid]
